Patent US11345681B1, “Inhibitors of fibroblast growth factor receptor kinases” (Kinnate Biopharma Inc., priority 2020, dated 2022)

Target: Wild type FGFR2 (Homo sapiens (Human), UniProt P21802)
Experiment: FGFR2 kinase assay (fluorescence-based microfluidic mobility shift assay)
Format: biochemical
Settings: not given

Chain of Wild type FGFR2 (P21802 22-821): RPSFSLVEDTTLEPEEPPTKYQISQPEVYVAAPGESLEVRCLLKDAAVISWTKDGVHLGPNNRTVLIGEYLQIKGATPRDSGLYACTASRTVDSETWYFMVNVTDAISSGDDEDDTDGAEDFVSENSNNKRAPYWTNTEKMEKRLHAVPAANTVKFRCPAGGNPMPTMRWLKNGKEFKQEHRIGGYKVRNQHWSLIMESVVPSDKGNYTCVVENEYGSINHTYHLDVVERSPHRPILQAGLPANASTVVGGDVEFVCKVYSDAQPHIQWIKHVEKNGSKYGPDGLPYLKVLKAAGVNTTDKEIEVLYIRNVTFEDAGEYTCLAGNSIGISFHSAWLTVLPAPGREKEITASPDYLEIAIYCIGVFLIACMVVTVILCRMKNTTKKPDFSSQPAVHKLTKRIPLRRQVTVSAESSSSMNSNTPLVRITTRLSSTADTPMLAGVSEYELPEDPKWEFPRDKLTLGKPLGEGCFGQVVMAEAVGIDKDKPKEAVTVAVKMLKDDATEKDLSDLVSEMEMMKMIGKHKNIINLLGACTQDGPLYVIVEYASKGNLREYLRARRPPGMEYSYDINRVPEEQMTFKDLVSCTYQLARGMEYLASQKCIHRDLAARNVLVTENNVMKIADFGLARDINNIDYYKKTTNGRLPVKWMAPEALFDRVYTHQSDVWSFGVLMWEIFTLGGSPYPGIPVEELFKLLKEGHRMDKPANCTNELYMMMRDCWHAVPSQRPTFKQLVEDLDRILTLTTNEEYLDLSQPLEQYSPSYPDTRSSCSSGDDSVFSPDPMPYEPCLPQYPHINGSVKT

| Structure (SMILES) | IC50 [nM] |
| --- | --- |
| C#CC(=O)N1C[C@@H](n2nc(C#Cc3cc4ncn(C5CC5)c4cc3F)c(C(N)=O)c2NC)C[C@@H]1CO [Example 198, 3-[2-(1-Cyclopropyl-6-fluoro-1,3-benzodiazol-5-yl)ethynyl]-1-[(3S,5R)-5-(hydroxymethyl)-1-(prop-2-ynoyl)pyrrolidin-3-yl]-5-(methylamino)pyrazole-4-carboxamide] | < 100 |

Same assay, conditions: wild type FGFR2 0.06 nM, 100 μM ATP, 80 minutes at room temperature; class symbols

| Structure (SMILES) | IC50 [nM] |
| --- | --- |
| CC#CC(=O)N1C[C@@H](n2nc(C#Cc3c(F)cc4c(ncn4C4CC4)c3F)c(C(N)=O)c2NC)C[C@@H]1COC [Example 185, 1-[(3S,5R)-1-(But-2-ynoyl)-5-(methoxymethyl)pyrrolidin-3-yl]-3-[2-(1-cyclopropyl-4,6-difluoro-1,3-benzodiazol-5-yl)ethynyl]-5-(methylamino)pyrazole-4-carboxamide] | ≤ 100 |
| C=CC(=O)N1CC[C@H](n2nc(C#Cc3c(F)cc4c(ncn4C4CC4)c3F)c(C(N)=O)c2NC)C1 [Example 186, 3-[2-(1-Cyclopropyl-4,6-difluoro-1,3-benzodiazol-5-yl)ethynyl]-5-(methylamino)-1-[(3S)-1-(prop-2-enoyl)pyrrolidin-3-yl]pyrazole-4-carboxamide] | ≤ 100 |
| C=CC(=O)N1CC[C@H](n2nc(C#Cc3c(F)cc4c(ncn4C4CC4)c3F)c(C(N)=O)c2N)C1 [Example 190, 5-Amino-3-[2-(1-cyclopropyl-4,6-difluoro-1,3-benzodiazol-5-yl)ethynyl]-1-[(3S)-1-(prop-2-enoyl)pyrrolidin-3-yl]pyrazole-4-carboxamide] | ≤ 100 |
| C=CC(=O)N1C[C@@H](n2nc(C#Cc3cc4ncn(CC)c4cc3Cl)c(C(N)=O)c2NC)C[C@@H]1CO [Example 191, 3-[2-(6-Chloro-1-ethyl-1,3-benzodiazol-5-yl)ethynyl]-1-[(3S,5R)-5-(hydroxymethyl)-1-(prop-2-enoyl)pyrrolidin-3-yl]-5-(methylamino)pyrazole-4-carboxamide] | ≤ 100 |
| C=CC(=O)N1CC(n2nc(C#Cc3cc4ncn(CC)c4cc3Cl)c(C(N)=O)c2NC)C1 [Example 192, 3-[2-(6-chloro-1-ethyl-1,3-benzodiazol-5-yl)ethynyl]-5-(methylamino)-1-[1-(prop-2-enoyl)azetidin-3-yl]pyrazole-4-carboxamide] | ≤ 100 |
| C=CC(=O)N1CC(n2nc(C#Cc3c(F)cc4c(ncn4C4CC4)c3F)c(C(N)=O)c2NC)C1 [Example 193, 3-[2-(1-Cyclopropyl-4,6-difluoro-1,3-benzodiazol-5-yl)ethynyl]-5-(methylamino)-1-[1-(prop-2-enoyl)azetidin-3-yl]pyrazole-4-carboxamide] | ≤ 100 |
| C=CC(=O)N1C[C@@H](n2nc(C#Cc3cc4ncn(CC)c4cc3Cl)c(C(N)=O)c2N)C[C@@H]1CO [Example 194, 5-Amino-3-[2-(6-chloro-1-ethyl-1,3-benzodiazol-5-yl)ethynyl]-1-[(3S,5R)-5-(hydroxymethyl)-1-(prop-2-enoyl)pyrrolidin-3-yl]pyrazole-4-carboxamide] | ≤ 100 |
| C=CC(=O)N1C[C@@H](n2nc(C#Cc3cc4ncn(CC)c4cc3Cl)c(C(N)=O)c2N)C[C@@H]1COC [Example 196, 5-Amino-3-[2-(6-chloro-1-ethyl-1,3-benzodiazol-5-yl)ethynyl]-1-[(3S,5R)-5-(methoxymethyl)-1-(prop-2-enoyl)pyrrolidin-3-yl]pyrazole-4-carboxamide] | ≤ 100 |
| CNc1c(C(N)=O)c(C#Cc2cc3ncn(C4CC4)c3cc2F)nn1[C@H]1C[C@H](COC)N(C(=O)C#CC(C)(C)O)C1 [Example 203, 3-((1-Cyclopropyl-6-fluoro-1H-benzo[d]imidazol-5-yl)ethynyl)-1-((3S,5R)-1-(4-hydroxy-4-methylpent-2-ynoyl)-5-(methoxymethyl)pyrrolidin-3-yl)-5-(methylamino)-1H-pyrazole-4-carboxamide] | ≤ 100 |
| CNc1c(C(N)=O)c(C#Cc2cc3ncn(C4CC4)c3cc2F)nn1C1CN(C(=O)/C=C/CN(C)C)C1 [Example 204, 3-[2-(1-Cyclopropyl-6-fluoro-1,3-benzodiazol-5-yl)ethynyl]-1-{1-[(2E)-4-(dimethylamino)but-2-enoyl]azetidin-3-yl}-5-(methylamino)pyrazole-4-carboxamide] | 100 to 1000 |
| C=CC(=O)N1CC(n2nc(C#Cc3cc4ncn(CC)c4cc3Cl)c(C(N)=O)c2N)C1 [Example 209, 5-Amino-3-[2-(6-chloro-1-ethyl-1,3-benzodiazol-5-yl)ethynyl]-1-[1-(prop-2-enoyl)azetidin-3-yl]pyrazole-4-carboxamide] | ≤ 100 |
| C=CC(=O)N1CC(n2nc(C#Cc3c(F)cc4c(ncn4C4CC4)c3F)c(C(N)=O)c2N)C1 [Example 210, 5-Amino-3-[2-(1-cyclopropyl-4,6-difluoro-1,3-benzodiazol-5-yl)ethynyl]-1-[1-(prop-2-enoyl)azetidin-3-yl]pyrazole-4-carboxamide] | ≤ 100 |
| C=CC(=O)N1C[C@@H](n2nc(C#Cc3cc4nc(C)n(C5CC5)c4cc3Cl)c(C(N)=O)c2NC)C[C@@H]1[C@@H](C)O [Example 220, 1-((3S,5R)-1-Acryloyl-5-((R)-1-hydroxyethyl)pyrrolidin-3-yl)-3-((6-chloro-1-cyclopropyl-2-methyl-1H-benzo[d]imidazol-5-yl)ethynyl)-5-(methylamino)-1H-pyrazole-4-carboxamide] | ≤ 100 |

The next lines start with the values.

| IC50 [nM] | Structure (SMILES) |
| --- | --- |
| ≤ 100 | C=CC(=O)N1C[C@@H](n2nc(C#Cc3c(F)cc4c(ncn4C4CC4)c3F)c(C(N)=O)c2N)C[C@@H]1COC [Example 189, 5-amino-3-[2-(1-cyclopropyl-4,6-difluoro-1,3-benzodiazol-5-yl)ethynyl]-1-[(3S,5R)-5-(methoxymethyl)-1-(prop-2-enoyl)pyrrolidin-3-yl]pyrazole-4-carboxamide] |
| ≤ 100 | C=CC(=O)N1C[C@@H](n2nc(C#Cc3cc4ncn(C5CC5)c4cc3Cl)c(C(N)=O)c2N)C[C@@H]1CO [Example 199, 5-Amino-3-[2-(6-chloro-1-cyclopropyl-1,3-benzodiazol-5-yl)ethynyl]-1-[(3S,5R)-5-(hydroxymethyl)-1-(prop-2-enoyl)pyrrolidin-3-yl]pyrazole-4-carboxamide] |
| ≤ 100 | C=CC(=O)N1C[C@@H](n2nc(C#Cc3cc4ncn(C5CC5)c4cc3Cl)c(C(N)=O)c2N)C[C@@H]1COC [Example 200, 5-Amino-3-[2-(6-chloro-1-cyclopropyl-1,3-benzodiazol-5-yl)ethynyl]-1-[(3S,5R)-5-(methoxymethyl)-1-(prop-2-enoyl)pyrrolidin-3-yl]pyrazole-4-carboxamide] |
| ≤ 100 | C=CC(=O)N1C[C@@H](n2nc(C#Cc3c(F)cc4c(ncn4C4CC4)c3F)c(C(N)=O)c2N)C[C@@H]1CO [Example 201, 5-Amino-3-[2-(1-cyclopropyl-4,6-difluoro-1,3-benzodiazol-5-yl)ethynyl]-[(3S,5R)-5-(hydroxymethyl)-1-(prop-2-enoyl)pyrrolidin-3-yl]pyrazole-4-carboxamide] |
| ≤ 100 | C=CC(=O)N1CC(n2nc(C#Cc3cc4ncn(C5CC5)c4cc3F)c(C(N)=O)c2N)C1 [Example 202, 5-Amino-3-[2-(1-cyclopropyl-6-fluoro-1,3-benzodiazol-5-yl)ethynyl]-1-[1-(prop-2-enoyl)azetidin-3-yl]pyrazole-4-carboxamide] |
| ≤ 100 | C=CC(=O)N1C[C@@H](n2nc(C#Cc3cc4ncn(C5CC5)c4cc3F)c(C(N)=O)c2NCC)C[C@@H]1COC [Example 205, 1-((3S,5R)-1-Acryloyl-5-(methoxymethyl)pyrrolidin-3-yl)-3-((1-cyclopropyl-6-fluoro-1H-benzo[d]imidazol-5-yl)ethynyl)-5-(ethylamino)-1H-pyrazole-4-carboxamide] |
| ≤ 100 | C=CC(=O)N1C[C@@H](n2nc(C#Cc3cc4nc(C)n(C5CC5)c4cc3F)c(C(N)=O)c2N)C[C@@H]1COC [Example 206, 5-Amino-3-[2-(1-cyclopropyl-6-fluoro-2-methyl-1,3-benzodiazol-5-yl)ethynyl]-1-[(3S,5R)-5-(methoxymethyl)-1-(prop-2-enoyl)pyrrolidin-3-yl]pyrazole-4-carboxamide] |
| ≤ 100 | C=CC(=O)N1C[C@@H](n2nc(C#Cc3cc4ncn(C5CC5)c4cc3F)c(C(N)=O)c2N)C[C@@H]1CO [Example 207, 5-Amino-3-[2-(1-cyclopropyl-6-fluoro-1,3-benzodiazol-5-yl)ethynyl]-1-[(3S,5R)-5-(hydroxymethyl)-1-(prop-2-enoyl)pyrrolidin-3-yl]pyrazole-4-carboxamide] |
| ≤ 100 | C=CC(=O)N1CC(n2nc(C#Cc3cc4ncn(C5CC5)c4cc3Cl)c(C(N)=O)c2N)C1 [Example 208, 5-Amino-3-[2-(6-chloro-1-cyclopropyl-1,3-benzodiazol-5-yl)ethynyl]-1-[1-(prop-2-enoyl)azetidin-3-yl]pyrazole-4-carboxamide] |
| ≤ 100 | C=CC(=O)N1C[C@@H](n2nc(C#Cc3cc4ncn(C5CC5)c4cc3F)c(C(N)=O)c2N)C[C@@H]1COC(F)F [Example 211, 5-Amino-3-[2-(1-cyclopropyl-6-fluoro-1,3-benzodiazol-5-yl)ethynyl]-1-[(3S,5R)-5-[(difluoromethoxy)methyl]-1-(prop-2-enoyl)pyrrolidin-3-yl]pyrazole-4-carboxamide] |
| ≤ 100 | C=CC(=O)N1C[C@@H](n2nc(C#Cc3ccc4c(c3)ncn4C3CC3)c(C(N)=O)c2N)C[C@@H]1COC(F)F [Example 212, 5-Amino-3-[2-(1-cyclopropyl-1,3-benzodiazol-5-yl)ethynyl]-1-[(3S,5R)-5-[(difluoromethoxy)methyl]-1-(prop-2-enoyl)pyrrolidin-3-yl]pyrazole-4-carboxamide] |
| ≤ 100 | C=CC(=O)N1C[C@@H](n2nc(C#Cc3cc4nc(C)n(C5CC5)c4cc3Cl)c(C(N)=O)c2N)C[C@@H]1COC [Example 214, 5-Amino-3-[2-(6-chloro-1-cyclopropyl-2-methyl-1,3-benzodiazol-5-yl)ethynyl]-1-[(3S,5R)-5-(methoxymethyl)-1-(prop-2-enoyl)pyrrolidin-3-yl]pyrazole-4-carboxamide] |
| ≤ 100 | C=CC(=O)N1C[C@@H](n2nc(C#Cc3c(F)cc4c(ncn4C4CC4)c3F)c(C(N)=O)c2N)C[C@@H]1COC(F)F [Example 215, 5-Amino-3-[2-(1-cyclopropyl-4,6-difluoro-1,3-benzodiazol-5-yl)ethynyl]-1-[(3S,5R)-5-[(difluoromethoxy)methyl]-1-(prop-2-enoyl)pyrrolidin-3-yl]pyrazole-4-carboxamide] |
